What was measured:
[1] = test system: subjects with a primary diagnosis of MDD; assay: MDD Study No. 2: efficacy evaluation, randomized double-blind placebo-controlled study; assay type: in vivo, human
Description: This example describes the results of a second multicenter, randomized, double-blind, placebo-controlled, parallel-group study that was also designed to evaluate the efficacy and safety of 50 and 100 mg/day ODV for treating MDD.
Subjects were male or female adults that met the same criteria as the subjects in Example 1. The planned enrollment was 450 subjects. A total of 565 subjects were screened for participation; 80 were screen failures and 485 were randomly assigned to treatment: 161 were assigned to receive placebo, 166 were assigned to receive ODV 50 mg/day; and 158 were assigned to receive ODV 100 mg/day. All 485 randomized subjects were included in the safety population (completed the prestudy period and took at least 1 dose of double-blind study drug). The intent-to-treat [ITT] efficacy population included 483 subjects, and the per-protocol [PP] efficacy population included 440 subjects. Completers for exposure (353 subjects) were defined as subjects who had at least 53 days of exposure to study drug.
The administration protocols for 50 or 100 mg/day and placebo groups were the same as in Example 1.
The primary and secondary outcomes were the same as in Example 1 as were the statistical methods. P-values of less than 0.05 are shown in bold.

[2] = test system: subjects with a primary diagnosis of MDD; assay: MDD Study No. 2: safety evaluation (AEs, DESS, laboratory); assay type: in vivo, human; settings: for subjects with AEs as reason for discontinuation: on-therapy period, placebo 3%
Description: The safety of the two doses was determined using the same assessments as in Example 1. […] Headache was the only TPAE with an incidence≧5% in the placebo group.
The DESS checklist was used to evaluate symptoms that first occurred, or that worsened, during the taper period (the 7-day period after the end of the double-blind treatment period). During this 7-day period, doses of ODV were tapered to 0 mg for subjects in the 50 mg group, and to 50 mg for subjects in the 100 mg group. The DESS checklist was administered to 420 of the 423 subjects who had completed at least 53 days of on-therapy treatment.

[3] = test system: subjects with a primary diagnosis of MDD; assay: MDD Study No. 3: safety evaluation (discontinuations, AEs); assay type: in vivo, human; settings: count; for Adverse Event Abnormal Dreams, subjects / Adverse Event Vomiting, subjects: placebo 3 (2); for Adverse Event Constipation, subjects: placebo 4 (3); for Adverse Event Anorexia, subjects / Adverse Event Flu Syndrome, subjects: placebo 5 (3); for Adverse Event Asthenia, subjects / Adverse Event Insomnia, subjects: placebo 6 (4); for Adverse Event Somnolence, subjects: placebo 8 (5); for Adverse Event Nausea, subjects: placebo 14 (9)
Description: The safety of the two doses was determined using the same assessments as in Example 1.

[4] = test system: norepinephrine and serotonin uptake; settings: Klamerus et al., J. Clin. Pharmacol. 32:716-724 (1992); cited from earlier work
[5] = all subjects, 50 and 100 mg/day

## CN(C)CC(c1ccc(O)cc1)C1(O)CCCCC1 (stereo not shown) [ODV, 1-[2-(dimethylamino)-1-(4-phenol)ethyl]-cyclohexanol]
[1]; 50 mg/day, FOT evaluation, ANCOVA LOCF, placebo −10.7
  HAM-D17 total score, adjusted mean change from baseline: −13.2
[1]; 50 mg/day, week 8, mixed effect model, placebo −11.5
  HAM-D17 total score, adjusted mean change from baseline: −14.4
[1]; 100 mg/day, FOT evaluation, ANCOVA LOCF, placebo −10.7
  HAM-D17 total score, adjusted mean change from baseline: −13.7
[1]; 100 mg/day, week 8, mixed effect model, placebo −11.5
  HAM-D17 total score, adjusted mean change from baseline: −14.9
[2]; 50 mg group
  incidence of nausea leading to discontinuation: 1.2%
  incidence of sweating leading to discontinuation: 1.2%
  incidence of vomiting leading to discontinuation: 1.2%
  most common (incidence≧5%) taper/poststudy-emergent AEs: headache, nausea, dizziness, and insomnia
  subjects with clinically important elevated SGPT/ALT levels: another subject
  subjects with AEs as reason for discontinuation: 5%
[2]; 50 mg group, during the 7-day taper period
  p-value, mean DESS scores in comparison with placebo: 0.001
[2]; 50 mg group, number of subjects
  subjects with clinically important increased total cholesterol levels: 1
[2]; 50 mg group, number of subjects, placebo 1
  subjects with clinically important elevated SGOT/AST levels: 1
[2]; 100 mg group
  incidence of anorgasmia in men leading to discontinuation: 2.1%
  incidence of asthenia leading to discontinuation: 1.3%
  incidence of headache leading to discontinuation: 1.3%
  incidence of nausea leading to discontinuation: 3.8%
  most common (incidence≧5%) TPAEs: headache, nausea, depression, dizziness, and vertigo
  subjects with AEs as reason for discontinuation: 7%
[2]; 100 mg group, week after the 7-day taper period
  p-value, mean DESS in comparison with placebo: 0.017
[2]; [5]
  SAEs during the on-therapy period: None of the subjects had SAEs during the on-therapy period
  deaths during the study: No deaths occurred during this study
[3]; 50 mg, n = 148
  Discontinued, reason Adverse Event, subjects: 8 (5)
  Adverse Event Abnormal Dreams, subjects: 5 (3)
  Adverse Event Vomiting, subjects: 2 (1)
  Adverse Event Constipation, subjects: 9 (6)
  Adverse Event Anorexia, subjects: 14 (10)
  Adverse Event Flu Syndrome, subjects: 6 (4)
  Adverse Event Asthenia, subjects: 12 (8)
  Adverse Event Insomnia, subjects: 20 (14)
  Adverse Event Somnolence, subjects: 14 (10)
  Adverse Event Nausea, subjects: 33 (22)
[3]; 100 mg, n = 150
  Discontinued, reason Adverse Event, subjects: 11 (7)
  Adverse Event Abnormal Dreams, subjects: 4 (3)
  Adverse Event Vomiting, subjects: 6 (4)
  Adverse Event Constipation, subjects: 10 (7)
  Adverse Event Anorexia, subjects: 14 (9)
  Adverse Event Flu Syndrome, subjects: 10 (7)
  Adverse Event Asthenia, subjects: 18 (12)
  Adverse Event Insomnia, subjects: 26 (17)
  Adverse Event Somnolence, subjects: 18 (12)
  Adverse Event Nausea, subjects: 35 (23)
[4]
  inhibition of norepinephrine and serotonin uptake: has been shown to inhibit norepinephrine and serotonin uptake

Reference: patent US20110027324A1, “O-DESMETHYL-V[…] TREATING MAJOR DEPRESSIVE DISORDER” (Wyeth LLC, priority 2007, published 2011)
